Species on record: Rattus norvegicus
Test: DrugMatrix - Regimen: Daily Repeat
Format: toxicity, organism-based, Sprague-Dawley
Parameters: regimen Daily Repeat, gender Male, age 6-8 weeks
Settings: in vivo, po, 1500 mg/kg, route oral GAVAGE, dose level High, vehicle .5 % CMC; for ABSOLUTE BASOPHIL / ABSOLUTE EOSINOPHIL / ABSOLUTE LYMPHOCYTE / ABSOLUTE MONOCYTE / ABSOLUTE SEGMENTED NEUTROPHIL / BASOPHIL / EOSINOPHIL / ERYTHROCYTE COUNT / HEMATOCRIT / HEMOGLOBIN / LEUKOCYTE COUNT / LYMPHOCYTE / MEAN CORPUSCULAR HEMOGLOBIN / MEAN CORPUSCULAR HEMOGLOBIN CONCENTRATION / MEAN CORPUSCULAR VOLUME / MONOCYTE / NEUTROPHIL / NUCLEATED RED BLOOD CELLS / PLATELET COUNT: tissue Blood
[1] = 72 h, tissue Plasma, time 3 day
[2] = 120 h, tissue Plasma, time 5 day

CC(C)=CCC/C(C)=C/CO [GERANIOL]
ABSOLUTE BASOPHIL (72 h, time 3 day): 0 CELLS/uL
ABSOLUTE EOSINOPHIL (72 h, time 3 day): 0 CELLS/uL
ABSOLUTE LYMPHOCYTE (72 h, time 3 day): 15609.33 CELLS/uL
ABSOLUTE MONOCYTE (72 h, time 3 day): 78.67 CELLS/uL
ABSOLUTE SEGMENTED NEUTROPHIL (72 h, time 3 day): 1378.67 CELLS/uL
BASOPHIL (72 h, time 3 day): 0%
EOSINOPHIL (72 h, time 3 day): 0%
ERYTHROCYTE COUNT (72 h, time 3 day): 5.7 x10E6/uL
HEMATOCRIT (72 h, time 3 day): 37.23%
HEMOGLOBIN (72 h, time 3 day): 14.37 G/DL
LEUKOCYTE COUNT (72 h, time 3 day): 17.07 x10E3/uL
LYMPHOCYTE (72 h, time 3 day): 92%
MEAN CORPUSCULAR HEMOGLOBIN (72 h, time 3 day): 25.2 pg
MEAN CORPUSCULAR HEMOGLOBIN CONCENTRATION (72 h, time 3 day): 38.57 G/DL
MEAN CORPUSCULAR VOLUME (72 h, time 3 day): 65.37 fL
MONOCYTE (72 h, time 3 day): 0.33%
NEUTROPHIL (72 h, time 3 day): 7.67%
NUCLEATED RED BLOOD CELLS (72 h, time 3 day): 0.33 /100WBC
PLATELET COUNT (72 h, time 3 day): 1276 x10E3/uL
ALANINE AMINOTRANSFERASE [1]: 47.33 u/L
ALBUMIN [1]: 4.4 G/DL
ALKALINE PHOSPHATASE [1]: 442 u/L
ASPARTATE AMINOTRANSFERASE [1]: 82 u/L
BLOOD UREA NITROGEN [1]: 13 mg/dL
CARBON DIOXIDE [1]: 29 mmol/L
CHLORIDE [1]: 100.67 MEQ/L
CHOLESTEROL [1]: 46.33 mg/dL
CREATINE PHOSPHOKINASE [1]: 471.33 u/L
CREATININE [1]: 0.25 mg/dL
GLUCOSE [1]: 162 mg/dL
LACTATE DEHYDROGENASE [1]: 193.67 u/L
LIPASE [1]: 9 u/L
PHOSPHORUS [1]: 14.7 mg/dL
POTASSIUM [1]: 7.11 MEQ/L
SODIUM [1]: 143.87 MEQ/L
TOTAL BILIRUBIN [1]: 0.13 mg/dL
TOTAL PROTEIN [1]: 5.93 G/DL
URIC ACID [1]: 2.07 mg/dL
ABSOLUTE BASOPHIL (120 h, time 5 day): 0 CELLS/uL
ABSOLUTE EOSINOPHIL (120 h, time 5 day): 0 CELLS/uL
ABSOLUTE LYMPHOCYTE (120 h, time 5 day): 19247.33 CELLS/uL
ABSOLUTE MONOCYTE (120 h, time 5 day): 1179 CELLS/uL
ABSOLUTE SEGMENTED NEUTROPHIL (120 h, time 5 day): 2373.67 CELLS/uL
BASOPHIL (120 h, time 5 day): 0%
EOSINOPHIL (120 h, time 5 day): 0%
ERYTHROCYTE COUNT (120 h, time 5 day): 6.01 x10E6/uL
HEMATOCRIT (120 h, time 5 day): 36.67%
HEMOGLOBIN (120 h, time 5 day): 14.67 G/DL
LEUKOCYTE COUNT (120 h, time 5 day): 22.8 x10E3/uL
LYMPHOCYTE (120 h, time 5 day): 84.67%
MEAN CORPUSCULAR HEMOGLOBIN (120 h, time 5 day): 24.53 pg
MEAN CORPUSCULAR HEMOGLOBIN CONCENTRATION (120 h, time 5 day): 40.03 G/DL
MEAN CORPUSCULAR VOLUME (120 h, time 5 day): 61.2 fL
MONOCYTE (120 h, time 5 day): 5%
NEUTROPHIL (120 h, time 5 day): 10.33%
NUCLEATED RED BLOOD CELLS (120 h, time 5 day): 0 /100WBC
PLATELET COUNT (120 h, time 5 day): 1333 x10E3/uL
ALANINE AMINOTRANSFERASE [2]: 63 u/L
ALBUMIN [2]: 4.63 G/DL
ALKALINE PHOSPHATASE [2]: 302.67 u/L
ASPARTATE AMINOTRANSFERASE [2]: 95.67 u/L
BLOOD UREA NITROGEN [2]: 18 mg/dL
CARBON DIOXIDE [2]: 32 mmol/L
CHLORIDE [2]: 102.33 MEQ/L
CHOLESTEROL [2]: 85.67 mg/dL
CREATINE PHOSPHOKINASE [2]: 441 u/L
CREATININE [2]: 0.16 mg/dL
GLUCOSE [2]: 143 mg/dL
LACTATE DEHYDROGENASE [2]: 772 u/L
LIPASE [2]: 10 u/L
PHOSPHORUS [2]: 12.2 mg/dL
POTASSIUM [2]: 6.32 MEQ/L
SODIUM [2]: 142.2 MEQ/L
TOTAL BILIRUBIN [2]: 0.1 mg/dL
URIC ACID [2]: 2 mg/dL
